Measured values reported in patent EP0829477A1, “NOVEL PHYSIOLOGICALLY ACTIVE NA23063 ANALOGUES, PROCESS FOR PRODUCING THE SAME AND USE OF THE SAME” (NIPPON KAYAKU KABUSHIKI KAISHA, priority 1995, dated 1996).

Columns and labels:
[1] = test system: Bovine Phosphodiesterase; test: Phosphodiesterase inhibiting activity (cAMP substrate, remaining cAMP measured by HPLC); assay type: biochemical; conditions: for IC50: inhibition of phosphodiesterase, from Table 2 data, read-out: IC 50 values
Procedure: Fifity g of the respiratory smooth muscle of a sacrificed cow was cut into pieces with scissors and a knife, then suspended in 2 mM EDTA-containing 20 mM Tris buffer (pH 7.4) of 5 times by volume the pieces, and homogenized with a polytron homogenizer to prepare a crude phosphodiesterase liquid. This was centrifuged at 10,000 x g for 20 minutes to collect the supernatant, which is a soluble, crude phosphodiesterase liquid. This was put into a Q-Sepharose fast-flow column (100 ml), washed with a buffer, and then eluted with sodium acetate having a gradient concentration of from 50 mM to 1 M. The phosphodiesterase-containing active fraction eluted with 0.7 M sodium acetate was collected.
To determine its phosphodiesterase activity, the enzyme was reacted with a substrate, 3',5'-cyclic adenosine monophosphate (cAMP, manufactured by Sigma Co. in US). After the reaction, the remaining cAMP was measured through high-performance liquid chromatography.
0.02 mg/ml of cAMP, 2.5 mM dithiothreitol, 6 mM magnesium chloride, 50 mM Tris buffer (pH 8.0), 1 µl of the phosphodiesterase liquid prepared above, and a varying amount of the compound of the invention were put into plastic tubes having a volume of 0.3 ml, to which was added water to have a final volume of 200 µl. The mixture was stirred, and incubated at 37°C for 60 minutes. 20 µl of an aqueous solution of 200 mM tetraethylenediamine was added to each tube to stop the reaction. 20 µl of the resulting reaction mixture was subjected to high-performance liquid chromatography (ODS column of 3.9 mm⌀ x 150 mm, manufactured by Waters Co. in US), through which the remaining cAMP was measured. From the data, obtained was the activity of the compound of the invention of inhibiting the enzyme phosphodiesterase, as in Table 2.

[2] = Solubility of the isolated substances in solvents; assay type: physicochemical; conditions: qualitative; for Solubility: various solvents
Procedure: These pure NA23063A, NA23063B1, NA23063B2, NA23063C and NA23063D were tested for their appearance, molecular weight, solubility, Rf value in silica gel thin-layer column chromatography, UV absorption spectrum, IR absorption spectrum, ^1H-NMR spectrum, and ^13C-NMR spectrum. The physicochemical properties of NA23063A, B1, B2, C and D thus obtained have been shown hereinabove.

[3] = test system: guinea pig oxyphiles; test: Inhibition of activation of oxyphiles (PAF-induced release of active oxygen, luminol chemiluminescence); assay type: cell-based, Hartley guinea pigs; conditions: Cavia porcellus, 5 min; PAF stimulation, chemiluminescence for 5 minutes; read-out: IC50 (x 10^-6 M)
Procedure: One mg of polymyxin B (manufactured by Sigma Co.) was intra-abdominally administered to Hartley guinea pigs (6-week age). The chemical was administered to the animals once a week, for 6 to 8 weeks. After the final administration of the chemical polymyxin B, 50 ml of PBS (phosphate-buffered saline) was injected into the abdomen of each guinea pig, and the abdominal cells were collected. These were centrifuged at 800 rpm for 5 minutes to collect the precipitate of abdominal infiltrated cells. The precipitated cells were suspended in 1 ml of 40 % Ficol solution (40 % Ficol (manufactured by Pharmacia Co.) in HBSS (Hanks' […] salt solution)), and stratified over a discontinuous density gradient of Ficol (40 to 90 %). This was centrifuged at 1500 rpm for 40 minutes to collect the oxyphile fraction. This operation generally produced oxyphiles having a purity of 99 % or higher. The cells were washed two times with an RPMI1640 medium (0.2 % BSA (bovine serum albumin), manufactured by Boehringer Mannheim Co.), then suspended to have a predetermined cell concentration, and used in the intended experiments. (B) Effect of Inactivating Oxyphiles (Effect of inhibiting the activity of guinea pig oxyphiles to release active oxygen):
2 µl of each chemical to be tested and 180 µl of the cell suspension were added to each well of a 96-well multiwell plate (white plate for chemiluminometry) which had been previously kept at 37°C, and kept therein at 37°C for 10 minutes. After thus kept, 20 µl of PAF (platelet activating factor) (x -10^-6 M) and 20 µl of a luminol solution were added thereto, and immediately the intensity of chemiluminescence of the system was measured, using […]. The data of chemiluminescence for 5 minutes were obtained, from which was calculated the 50 % inhibition concentration of the compound tested (IC50).

[4] = test system: bronchial smooth muscle; test: Inhibition of contraction of bronchial smooth muscle (histamine-contracted tracheal strips in an organ bath); design: species or system Hartley guinea pigs; conditions: 10 µg/ml; contraction with 10 µM histamine = 100 %, relaxation with papaverine = 0 %
Procedure: The tracheae were taken out of male Hartley guinea pigs having a body weight of from 400 to 500 g. These were cut off at the cartilage opposite to the smooth muscle, and sliced into small pieces having a width of 1 mm. Five of these pieces were bound with silk thread into one bundle, of which the both ends were ligated with machine cotton. This was then suspended in an organ bath with applying thereto a tension of 0.5 g. The temperature of the bath was 37°C, and the bath contained a nutrient liquid of Krebs-Hanseleit buffer (118 mM NaCl, 4.6 mM KCl, 1.1 mM MgSO4·7H2O, 1.8 mM CaCl2·2H2O, 24.9 mM NaHCO3, 1.0 mM KH2PO4·2H2O, 11.1 mM glucose). To the nutrient liquid, added was 5 µM indomethacin. The bath was well aerated with a mixed gas of 95 % O2 + 5 % CO2. The suspended tissue was incubated in the organ bath for about 2 hours for habituation in the external environment. Then, this was contracted with 10 µM histamine. After the contraction was stabilized, NA23063D was added to the bath to have a concentration of 0.1, 0.3, 1.0, 3.0, 10 and 30 µg/ml. The reaction in the bath comprising the varying amount of NA23063D was continued until the relaxation of the tissue became stabilized. When no relaxation was admitted in 10 minutes after the addition of the chemical, NA23063D, the concentration of the chemical was increased to the next stage. […]

[5] = test system: respiratory tract resistance; test: Inhibition of immediate allergic respiratory stenosis in ovalbumin-sensitized asthmatic animal models; assay type: in vivo, Brown-Norway (BN) rats; conditions: intravenous administration of 30 mg/kg, rat models, relative to control maximum resistance after antigen
Procedure: An antigen ovalbumin (OA) was administered to male Brown-Norway (BN) rats to prepare actively-sensitized animal models. To sensitize the animals, 1 ml of the antigen solution (100 mg/ml of Al(OH)3 and 1 mg/ml of OA in aqueous 0.9 % NaCl solution) was subcutaneously administered to the back of each rat. On the other hand, inactivated cells of Bordetella pertussis were suspended in an aqueous solution of 0.9 % NaCl to have a concentration of 1.0 x 10^10 cells/ml. 0.25 ml of the cell suspension was intra-abdominally administered to each rat along with the antigen sensitization. The administration was repeated three times in all, on the 1st, 7th and 14th days. […]
Those actively-sensitized BN rats were anesthetized with sodium pentobarbiturate (50 mg/kg, i.p.), into which was inserted a polyvinyl chloride tube cannula through the respiratory tract. Each rat was purged with air through the cannula, and the respiratory tract resistance was monitored. […] In addition, an additional cannula was inserted into the left common carotid artery of each rat, through which the blood pressure and the heart beat of the rat being tested were monitored. […] On the basis of the time (0, zero) at which the antigen was challenged, the variation (increase or decrease) in the respiratory tract resistance of each rat was recorded at regular intervals before and after the administration of the antigen. […]

O=c1c(-c2ccc(Oc3cc(-c4coc5cc(O)cc(O)c5c4=O)ccc3O)cc2)coc2cc(O)cc(O)c12 [NA23063A]
Inhibiting Activity (%) ([1]; Concentration 0.78 µg/ml): 43.5%
Inhibiting Activity (%) ([1]; Concentration 1.56 µg/ml): 57.8%
Inhibiting Activity (%) ([1]; Concentration 3.13 µg/ml): 60.5%
Inhibiting Activity (%) ([1]; Concentration 6.25 µg/ml): 79.5%
IC50 [1]: 2.1 µM
Solubility [2]: soluble in lower alcohols, acetone and ethyl acetate, but insoluble in hexane, petroleum ether and water
IC50 [3]: 0.1 µM

O=c1c(-c2ccc(Oc3cc(-c4coc5cc(O)cc(O)c5c4=O)ccc3O)cc2)coc2cc(O)ccc12 [NA23063B1]
Inhibiting Activity (%) ([1]; Concentration 0.39 µg/ml): 17.5%
Inhibiting Activity (%) ([1]; Concentration 0.78 µg/ml): 28.1%
Inhibiting Activity (%) ([1]; Concentration 1.56 µg/ml): 38.2%
Inhibiting Activity (%) ([1]; Concentration 3.13 µg/ml): 56.3%
Inhibiting Activity (%) ([1]; Concentration 6.25 µg/ml): 64.9%
IC50 [1]: 4.9 µM
Solubility [2]: soluble in lower alcohols, acetone, ethyl acetate and dimethylsulfoxide, but insoluble in hexane, petroleum ether and water

O=c1c(-c2ccc(O)c(Oc3ccc(-c4coc5cc(O)cc(O)c5c4=O)cc3)c2)coc2cc(O)ccc12 [NA23063B2]
Inhibiting Activity (%) ([1]; Concentration 0.39 µg/ml): 17.5%
Inhibiting Activity (%) ([1]; Concentration 0.78 µg/ml): 28.1%
Inhibiting Activity (%) ([1]; Concentration 1.56 µg/ml): 38.2%
Inhibiting Activity (%) ([1]; Concentration 3.13 µg/ml): 56.3%
Inhibiting Activity (%) ([1]; Concentration 6.25 µg/ml): 64.9%
IC50 [1]: 4.9 µM
Solubility [2]: soluble in lower alcohols, acetone, ethyl acetate and dimethylsulfoxide, but insoluble in hexane, petroleum ether and water

O=c1c(-c2ccc(O)c(-c3cc(-c4coc5cc(O)cc(O)c5c4=O)ccc3O)c2)coc2cc(O)cc(O)c12 [NA23063C]
Inhibiting Activity (%) ([1]; Concentration 0.39 µg/ml): 26.4%
Inhibiting Activity (%) ([1]; Concentration 0.78 µg/ml): 57.7%
Inhibiting Activity (%) ([1]; Concentration 1.56 µg/ml): 66.5%
Inhibiting Activity (%) ([1]; Concentration 3.13 µg/ml): 77.6%
Inhibiting Activity (%) ([1]; Concentration 6.25 µg/ml): 83.8%
IC50 [1]: 1.3 µM
Solubility [2]: soluble in lower alcohols, acetone, ethyl acetate and dimethylsulfoxide, but insoluble in hexane, petroleum ether and water
IC50 [3]: 0.32 µM

O=c1c(-c2ccc(O)c(-c3cc(-c4coc5cc(O)cc(O)c5c4=O)ccc3O)c2)coc2cc(O)ccc12 [NA23063D]
Inhibiting Activity (%) ([1]; Concentration 0.39 µg/ml): 18.9%
Inhibiting Activity (%) ([1]; Concentration 0.78 µg/ml): 30.7%
Inhibiting Activity (%) ([1]; Concentration 1.56 µg/ml): 34.6%
Inhibiting Activity (%) ([1]; Concentration 3.13 µg/ml): 44.8%
Inhibiting Activity (%) ([1]; Concentration 6.25 µg/ml): 61.0%
IC50 [1]: 7.9 µM
relaxation of the bronchial smooth muscle [4]: 61%
Solubility in dimethylsulfoxide (DMSO) [2]: soluble
Solubility [2]: soluble in lower alcohols, acetone, ethyl acetate and dimethylsulfoxide, but insoluble in hexane, petroleum ether and water
IC50 [3]: 1.1 µM
% inhibition (decrease in the respiratory tract resistance) [5]: 54%
